Measured values published in paper PMC2644050 (The Journal of pharmacology and experimental therapeutics, 2008).

Key:
[1] = molecular target: T1, human muscarinic M4 receptor (CHO M4) (Homo sapiens, UniProt P08173); test: inhibition of forskolin-stimulated cAMP accumulation, [3H]adenine pre-labeling; type: cell-based; settings: CHO M4 cells, Gi pathway, 10 μM forskolin; agonist
T1 sequence (P08173 1-479): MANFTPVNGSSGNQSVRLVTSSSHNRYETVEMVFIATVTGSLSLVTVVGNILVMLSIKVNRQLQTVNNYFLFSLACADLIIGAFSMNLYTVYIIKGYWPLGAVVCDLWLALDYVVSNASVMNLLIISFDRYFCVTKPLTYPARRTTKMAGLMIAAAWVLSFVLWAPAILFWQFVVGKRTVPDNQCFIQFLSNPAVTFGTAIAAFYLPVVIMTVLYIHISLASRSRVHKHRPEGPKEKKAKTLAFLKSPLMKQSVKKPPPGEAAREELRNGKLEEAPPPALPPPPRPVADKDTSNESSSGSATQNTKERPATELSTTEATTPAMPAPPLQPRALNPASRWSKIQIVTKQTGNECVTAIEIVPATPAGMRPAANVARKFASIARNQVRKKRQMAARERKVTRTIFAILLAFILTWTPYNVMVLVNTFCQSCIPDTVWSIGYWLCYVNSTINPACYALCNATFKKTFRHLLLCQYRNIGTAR

[2] = molecular target: T2, human muscarinic M1 receptor (CHO M1) (Homo sapiens, UniProt P11229); test: stimulation of phosphoinositide hydrolysis, [3H]inositol pre-labeling; type: cell-based
T2 sequence (P11229 1-460): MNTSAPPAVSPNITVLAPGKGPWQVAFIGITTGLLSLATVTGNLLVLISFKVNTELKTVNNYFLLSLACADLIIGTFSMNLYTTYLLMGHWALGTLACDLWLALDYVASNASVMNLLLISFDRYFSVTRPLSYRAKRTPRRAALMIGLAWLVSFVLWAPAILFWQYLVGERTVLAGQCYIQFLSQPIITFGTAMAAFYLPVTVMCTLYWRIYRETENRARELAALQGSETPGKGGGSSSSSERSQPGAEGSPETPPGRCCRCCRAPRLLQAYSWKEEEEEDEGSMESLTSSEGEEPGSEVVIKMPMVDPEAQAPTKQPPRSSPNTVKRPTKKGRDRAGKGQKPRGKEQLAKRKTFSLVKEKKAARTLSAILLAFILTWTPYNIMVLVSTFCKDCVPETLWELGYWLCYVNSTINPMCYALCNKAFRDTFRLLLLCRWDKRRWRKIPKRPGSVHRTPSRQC

C[N+](C)(C)CC#CCN1CCCC1=O [oxotremorine-M]
EC50 (μM) [1]: 0.030 (−7.52 ± .07) μM
EC50 (μM) [2]: 0.041 (−7.39 ± .05) μM
